PMC10326435, “Antiprotozoal activity of natural products from Nigerien plants used in folk medicine” (Frontiers in Pharmacology, 2023)
Where two headings read alike, the source gives them in different places.

Assays:
[1] = test system: T. b. rhodesiense (STIB900, trypomastigotes); experiment: in vitro activity on T. b. rhodesiense, serial dilution assay; assay type: cell-based, Trypanosoma brucei rhodesiense; settings: for IC50: 72 h exposure, means of two independent assays ± deviation from the mean, read-out: IC50 T. b. rhodesiense; for Selectivity index (SI) T. b. rhodesiense: SI = IC50 cytotoxicity (L6)/IC50 in T. b. rhodesiense
Description: (§1) The in vitro activity was assessed on T. b. rhodesiense (STIB900, trypomastigotes), T. cruzi (Tulahuen C2C4, intracellular amastigotes), L. donovani (MHOM-ET-67/L82, axenically grown amastigotes), P. falciparum (NF54, intraerythrocytic), and L6 cells (ATCC, CRL-1458™, rat skeletal myoblasts) as previously described ([Bernal et al., 2020]). The activities were determined in serial dilution assays with 72 h compound exposure, respectively 96 h for intracellular T. cruzi. Results are expressed in µg/mL for extracts and in µM for pure compounds. The IC50 values were determined for the compounds only when they were <50 µM.

[2] = test system: T. cruzi (Tulahuen C2C4, intracellular amastigotes); experiment: in vitro activity on T. cruzi, serial dilution assay; assay type: cell-based, Trypanosoma cruzi; settings: for IC50: 96 h exposure, means of two independent assays ± deviation from the mean, read-out: IC50 T. cruzi; for Selectivity index (SI) T. cruzi: SI = IC50 cytotoxicity (L6)/IC50 in T. cruzi
Description: as §1

[3] = test system: L. donovani (MHOM-ET-67/L82, axenically grown amastigotes); experiment: in vitro activity on L. donovani, serial dilution assay; assay type: cell-based, Leishmania donovani; settings: for IC50: axenic amastigotes, 72 h exposure, means of two independent assays ± deviation from the mean, read-out: IC50 L. donovani; for Selectivity index (SI) L. donovani: SI = IC50 cytotoxicity (L6)/IC50 in L. donovani
Description: as §1

[4] = test system: P. falciparum (NF54, intraerythrocytic); experiment: in vitro activity on P. falciparum, serial dilution assay; assay type: cell-based, Plasmodium falciparum; settings: for IC50: 72 h exposure, means of two independent assays ± deviation from the mean, read-out: IC50 P. falciparum; for Selectivity index (SI) P. falciparum: SI = IC50 cytotoxicity (L6)/IC50 in P. falciparum
Description: as §1

[5] = cytotoxicity in L6 cells; assay type: cell-based, rat; settings: rat
Description: as §1

[6] = test system: P. falciparum; settings: cited from earlier work
[7] = test system: intracellular L. donovani amastigotes in mouse macrophages; experiment: intracellular L. donovani amastigotes in mouse macrophages; assay type: cell-based, Leishmania donovani; settings: not active, read-out: IC50 against intracellular L. donovani amastigotes
Excerpt: The antiparasitic activity of myricitrin (1) and quercitrin (2) was already described in the literature ([Muzitano et al., 2006]; [Larit et al., 2021]), and therefore it was not evaluated in the present study. Compound 3 was the only compound evaluated from the extract of C. sieberiana and was compared to the activity of miltefosine due to structural similarities. […] Among the cyclopeptide alkaloids isolated from the DCM extract of Z. mauritiana (4, 5, 7–12), a methoxy group at C-13 (10–12) seems to be favorable for the antiplasmodial activity. In addition, the indole group at C-29 present in compounds 9 and 12 seems to be important for the activity against T. b. rhodesiense. […] This is the first report on the antileishmanial and antitrypanosomal activities of these compounds. […] This is in agreement with our study. Among the triterpene derivatives isolated from the DCM root bark extract of Z. mauritiana (6, 13–19), betulinic acid (19), an already well-studied compound, was not tested in this work. […] The triterpenoids tested in the present work (Table 3) were mainly active against L. donovani and presented a good selectivity index. The substitution with an epoxy group in compound 13 compared to compound 6 enhanced the activity toward L. donovani and P. falciparum but not against T. cruzi. […]

[8] = test system: L6 cells (ATCC, CRL-1458, rat skeletal myoblasts); experiment: cytotoxicity in L6 cells; assay type: cell-based; settings: rat, 72 h
Description: as §1

[9] = test system: T. b. rhodesiense; settings: previously reported; ref Cretton et al., 2015; read-out: IC50 against T. b. rhodesiense; cited from earlier work
[10] = test system: Leishmania spp.; set-up: method as in Rocha et al., 2022; settings: no significant activity; ref Rocha et al., 2022; read-out: IC50 against Leishmania spp.; cited from earlier work
[11] = test system: T. cruzi; settings: read-out: IC50 against T. cruzi, cited from earlier work
[12] = test system: L. amazonensis; set-up: method as in Costa et al., 2018; settings: ref Costa et al., 2018; read-out: IC50 against L. amazonensis; cited from earlier work
[13] = Trypanosoma cruzi, TULAHUEN, 96 h
[14] = Plasmodium falciparum, NF54, 72 h
[15] = already reported, ref Suksamrarn et al., 2006, Panseeta et al., 2011, Tuenter et al., 2017, read-out: antiplasmodial activity IC50
[16] = L6 cells (rat skeletal myoblasts, ATCC CRL-1458), rat skeletal myoblast (L6 cells), 72 h exposure, means of two independent assays ± deviation from the mean, read-out: IC50 Cytotoxicity

Row | SMILES | IC50 ([1]; Trypanosoma brucei, 72 h) | IC50 [2, 13] | IC50 ([3]; Leishmania donovani, 72 h) | Selectivity index (SI) L. donovani [3] | IC50 [4, 14] | Selectivity index (SI) P. falciparum [4] | IC50 at 72 h ([5]; IC50 Cytotoxicity) | Selectivity index (SI) T. b. rhodesiense [1] | Selectivity index (SI) T. cruzi [2] | also measured
1 | CN[C@H](C)C(=O)N[C@H](C(=O)N1CC[C@@H]2Oc3ccc(OC)c(c3)/C=C\NC(=O)[C@H](Cc3ccccc3)NC(=O)[C@H]21)C(C)C [Compound 11, N-demethylamphibine H] | > 50 µM | > 50 µM | 44.8 ± 3.4 µM | > 1.5 | 14.7 ± 4.2 µM | > 5.4 | > 50 µM | – | – | IC50 [6, 15]: 3.6 µM
2 | CCC(C)[C@@H]1NC(=O)[C@@H]2[C@H](CCN2C(=O)[C@H](Cc2c[nH]c3ccccc23)NC(=O)[C@H](CC(C)C)NC)Oc2ccc(OC)c(c2)/C=C\NC1=O (some centres unmarked) [Compound 12, mauritine M] | 6.4 ± 2 µM | 15.7 ± 1.1 µM | > 50 µM | – | 2.6 ± 0.2 µM | 12.2 | 31.8 ± 7.6 µM | 5.0 | 2.0 | IC50 [6, 15]: 3.7 µM
3 | C=C(C)C1CCC2(C(=O)O)CCC3(C)C(CCC4C5(C)C(C(=O)O)C(OC(=O)c6ccccc6)C(C)(C)C5CCC43C)C12 [Compound 15, (1R, 3S)-3-O-benzoyl ceanothic acid] | – | 43.8 ± 8.4 µM | – | 32.8 | 10.1 ± 0.6 µM | 1.6 | 16.4 ± 5.8 µM | 1.4 | 0.4 | IC50 [1]: 11.7 ± 1 µM; IC50 [3]: 0.5 ± 0.2 µM; IC50 ([7]; Leishmania donovani, Macrophage): > 50 µM
4 | C=C(C)C1CCC2(C(=O)O)CCC3(C)C(CCC4C5(C)C(C(=O)O)C(OC(=O)c6ccccc6)C(C)(C)C5CCC43C)C12 [Compound 16, (1S, 3S)-3-O-benzoyl ceanothic acid] | – | – | – | 17.9 | – | 2.1 | – | 1.1 | – | IC50 [1]: 30.6 ± 2.8 µM; IC50 [2]: > 50 µM; IC50 [3]: 1.8 ± 0.7 µM; IC50 [4]: 15.3 ± 1.5 µM; IC50 [8]: 32.3 ± 5.1 µM; IC50 [7]: > 50 µM
5 | C=C(C)[C@@H]1CC[C@]2(C(=O)O)CC[C@]3(C)[C@H](CC[C@@H]4[C@@]5(C)CC[C@H](O)C(C)(C)[C@@H]5CC[C@]43C)[C@@H]12 [Compound 19, betulinic acid] | – | – | – | – | – | – | – | – | – | IC50 ([6]; previously reported, ref Cretton et al., 2015, read-out: IC50 against P. falciparum): 19 µM; IC50 [9]: 4.2 µM; IC50 [10]: > 25 µM; IC50 ([11]; no significant activity, ref Rocha et al., 2022): > 25 µM
6 | CC(C)=CCC1=C(O)C(=O)c2c(O)ccc(O)c2C1=O [Compound 20] | 6.9 ± 1.3 µM | 27.4 ± 1.3 µM | 1.9 ± 0.4 µM | 7.4 | 45 ± 4.6 µM | 0.3 | – | 2.0 | 0.5 | IC50 at 72 h [5, 16]: 14 ± 0.4 µM; IC50 ([6]; previously evaluated, ref Kopa et al., 2014, read-out: antiplasmodial activity IC50): 3 µM
7 | CC1(C)C=CC2=C(O1)C(=O)c1c(O)ccc(O[C@@H]3O[C@H](CO)[C@@H](O)[C@H](O)[C@H]3O)c1C2=O [Compound 29] | 12.5 ± 1.6 µM | > 50 µM | 11.4 ± 2.3 µM | 3.5 | > 50 µM | – | – | 3.2 | – | IC50 at 72 h [5, 16]: 40.3 ± 0.7 µM; IC50 ([11]; ref Costa et al., 2018): 7.6 µM; IC50 [12]: 12.6 µM
